Measurements reported in patent publication US20060062859A1, “Composition and method to optimize and customize nutritional supplement formulations by measuring genetic and metabolomic contributing factors to disease diagnosis, stratification, prognosis, metabolism, and therapeutic outcomes” (priority 2004, published 2006).
Like-named read-outs stand apart in the source and are kept apart here. Where no end group is shown, it is not given here.

Tests used:
[1] = repeated stress; cited from earlier work
[2] = cited from earlier work
D2 receptors in the Nacc = target: T1, D2 receptors in the Nacc (Rattus norvegicus, UniProt P61169); details: bilateral, nmol/side; cited from earlier work
T1 construct: from tissue; host or cells: nucleus accumbens in vivo; study cited from the literature

synaptosomal dopamine = details: cited from earlier work
[3] = Compliance with Trexan after rapid detoxification of methadone patients; type: in vivo, human; details: P<0.0001
Method: Over the last decade, a new rapid method to detoxify either methadone or heroin addicts utilizing TrexanR sparked interest in many treatment centers throughout the United States, Canada, as well as many countries on a worldwide basis. […] It may also be interesting too further test this hypothesis with the sublingual combination of the partial opiate mu receptor agonist buprenorphrine. The ingredients tested included DL-phenylalanine (2760 mg/day), L-Glutamine (150 mg/day), chromium picolinate (360 micrograms/day), pyridoxal-5-phosphate (30 mg/day). • Most recently a study was performed by Julia Ross best selling author of The Diet Cure (Viking Press USA, 1999; Penguin UK, Au, and USA, 2000), in an outpatient clinic in Mill Valley, Calif. involving amino-acid therapy and enkephalinase inhibition based on Blum's work. […]

ATP-citrate lyase = target: T2, ATP-citrate lyase (Homo sapiens, UniProt P53396); details: cited from earlier work
T2 sequence (P53396 1-1101): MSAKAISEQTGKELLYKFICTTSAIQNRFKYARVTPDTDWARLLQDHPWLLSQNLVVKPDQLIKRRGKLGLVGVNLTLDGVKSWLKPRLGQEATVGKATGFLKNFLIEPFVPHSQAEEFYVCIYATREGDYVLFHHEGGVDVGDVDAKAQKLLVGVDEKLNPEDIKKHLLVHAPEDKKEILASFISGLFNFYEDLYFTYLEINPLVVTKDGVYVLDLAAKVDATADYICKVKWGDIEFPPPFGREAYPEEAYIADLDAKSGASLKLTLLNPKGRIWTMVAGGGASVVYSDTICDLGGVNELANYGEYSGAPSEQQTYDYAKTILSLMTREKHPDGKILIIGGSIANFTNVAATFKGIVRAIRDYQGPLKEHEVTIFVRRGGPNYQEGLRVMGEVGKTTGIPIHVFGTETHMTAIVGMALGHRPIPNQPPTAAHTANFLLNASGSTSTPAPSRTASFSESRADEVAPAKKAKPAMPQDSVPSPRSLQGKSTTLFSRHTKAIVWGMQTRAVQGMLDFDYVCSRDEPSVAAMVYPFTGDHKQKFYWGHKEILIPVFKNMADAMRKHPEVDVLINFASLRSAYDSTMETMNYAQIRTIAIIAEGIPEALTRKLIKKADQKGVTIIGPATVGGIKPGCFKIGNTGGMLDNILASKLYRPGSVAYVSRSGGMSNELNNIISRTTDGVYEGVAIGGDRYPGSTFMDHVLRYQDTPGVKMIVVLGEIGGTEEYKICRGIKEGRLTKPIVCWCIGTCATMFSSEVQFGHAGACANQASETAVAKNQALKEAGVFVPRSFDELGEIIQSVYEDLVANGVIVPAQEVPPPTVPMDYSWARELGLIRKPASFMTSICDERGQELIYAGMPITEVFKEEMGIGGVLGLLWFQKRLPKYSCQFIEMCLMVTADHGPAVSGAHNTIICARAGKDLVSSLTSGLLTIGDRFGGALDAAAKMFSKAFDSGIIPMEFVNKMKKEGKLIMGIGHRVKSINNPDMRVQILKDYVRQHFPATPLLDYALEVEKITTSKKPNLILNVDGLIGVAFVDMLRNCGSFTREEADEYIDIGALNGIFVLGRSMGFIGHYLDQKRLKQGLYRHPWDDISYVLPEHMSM

[4] = HCA 440 mg t.i.d. eight weeks (Thom); set-up: species or system human; details: in vivo
Method: The Thom study indicates a dosage level of 440 mg of HCA (as opposed to GcE) t.i.d. (1320 mg/day) for eight weeks. […] The mean “weight loss” in the HCA group was 6.4 kg, 1.68 times greater than placebo. […] The GcE was taken in conjunction with 1200 mg L-Carnitine and 600 mcg chromium (from picolinate) and compared to placebo in 186 subjects (200 began the study) for 4 weeks. All participants were supposed to engage in an exercise regimen calibrated to personal needs. Loss of body fat in the treatment group averaged 1.29 kg compared to 0.64 kg in the placebo ([…]. The Girola study investigated the effects of chitosan, combined with a low amount of GcE, making a comparative evaluation impossible. In fact, variables in the studies noted, and others not mentioned, make conclusions about the efficacy of GcE for “weight loss” extremely difficult.

[5] = in vivo; cited from earlier work
[6] = 2 weeks; cited from earlier work
[7] = 2 g of HCA; fasting and fed subjects; cited from earlier work
[8] = 1320 mg/day, eight weeks, 1200 kcal/day; cited from earlier work
[9] = 3.0 g/day for 3 days; fasting state, rest or moderate exercise; cited from earlier work
[10] = cited from earlier work; remark: listed apart in the source
[11] = VTA / midbrain dopamine neurons; cited from earlier work
[12] = tested on: sweet and bitter receptors on the tongue; details: in vivo; cited from earlier work
release of serotonin = details: long lasting and dose dependent; cited from earlier work
[13] = cited from earlier work; for OA pain / joint function: people with OA
[14] = tested on: brain dopamine and serotonin flux; details: cited from earlier work
[15] = in vivo; cited from earlier work; remark: listed apart in the source
insulin receptor (IR) = target: T3, insulin receptor (IR) (Mus musculus, UniProt P15208); details: cited from earlier work
T3 construct: endogenous in cells; study cited from the literature

[16] = injections; cited from earlier work
[17] = direct microinjection; cited from earlier work
[18] = Enkephalinase inhibitors in mice: brain enkephalins and alcohol preference; type: in vivo; details: for alcohol preference: acceptance and 14 day preference test; for brain enkephalins: d-phenylalanine 500 mg/kg/day 18 days, metabolite 25 micrograms i.c.v.
[19] = chronic treatment; cited from earlier work
[20] = double-blind placebo controlled; cited from earlier work

T3 sequence (P15208 28-748 limits assumed): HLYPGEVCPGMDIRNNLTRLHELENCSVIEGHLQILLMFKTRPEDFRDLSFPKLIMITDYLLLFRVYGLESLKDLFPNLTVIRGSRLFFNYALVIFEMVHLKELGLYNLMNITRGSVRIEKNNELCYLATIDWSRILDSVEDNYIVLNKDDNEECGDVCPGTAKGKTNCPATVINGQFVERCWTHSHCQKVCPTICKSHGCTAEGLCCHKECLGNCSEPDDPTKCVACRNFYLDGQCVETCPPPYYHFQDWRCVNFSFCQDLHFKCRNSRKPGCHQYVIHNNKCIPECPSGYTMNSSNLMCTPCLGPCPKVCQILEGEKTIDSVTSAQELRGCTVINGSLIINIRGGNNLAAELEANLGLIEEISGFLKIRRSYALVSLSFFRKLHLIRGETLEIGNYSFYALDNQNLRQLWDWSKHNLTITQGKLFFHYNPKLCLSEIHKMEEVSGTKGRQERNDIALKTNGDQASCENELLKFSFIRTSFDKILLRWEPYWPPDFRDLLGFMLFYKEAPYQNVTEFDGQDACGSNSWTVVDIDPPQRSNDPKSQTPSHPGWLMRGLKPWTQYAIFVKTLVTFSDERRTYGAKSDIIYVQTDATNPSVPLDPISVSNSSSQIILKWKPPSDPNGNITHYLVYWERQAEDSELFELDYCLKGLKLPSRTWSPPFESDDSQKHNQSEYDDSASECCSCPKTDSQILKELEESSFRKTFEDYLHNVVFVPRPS
T3 sequence (P15208 753-1372 limits assumed): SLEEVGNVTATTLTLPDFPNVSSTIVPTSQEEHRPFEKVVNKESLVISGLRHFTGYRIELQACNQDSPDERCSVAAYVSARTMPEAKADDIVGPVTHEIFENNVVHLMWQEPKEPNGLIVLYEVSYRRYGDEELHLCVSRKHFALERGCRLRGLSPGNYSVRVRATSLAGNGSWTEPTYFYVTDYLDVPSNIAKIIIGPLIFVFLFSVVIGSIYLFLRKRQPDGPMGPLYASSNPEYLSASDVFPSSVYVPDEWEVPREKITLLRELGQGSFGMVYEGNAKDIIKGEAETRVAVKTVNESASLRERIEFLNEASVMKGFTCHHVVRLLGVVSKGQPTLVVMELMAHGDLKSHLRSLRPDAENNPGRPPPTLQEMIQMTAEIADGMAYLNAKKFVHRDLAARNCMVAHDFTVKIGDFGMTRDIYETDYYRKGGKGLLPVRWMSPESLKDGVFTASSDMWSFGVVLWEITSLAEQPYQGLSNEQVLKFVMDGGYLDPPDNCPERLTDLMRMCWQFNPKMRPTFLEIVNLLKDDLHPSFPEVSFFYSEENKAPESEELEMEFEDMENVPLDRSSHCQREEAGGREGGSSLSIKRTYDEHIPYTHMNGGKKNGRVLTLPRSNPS
T1 sequence (P61169 whole entry): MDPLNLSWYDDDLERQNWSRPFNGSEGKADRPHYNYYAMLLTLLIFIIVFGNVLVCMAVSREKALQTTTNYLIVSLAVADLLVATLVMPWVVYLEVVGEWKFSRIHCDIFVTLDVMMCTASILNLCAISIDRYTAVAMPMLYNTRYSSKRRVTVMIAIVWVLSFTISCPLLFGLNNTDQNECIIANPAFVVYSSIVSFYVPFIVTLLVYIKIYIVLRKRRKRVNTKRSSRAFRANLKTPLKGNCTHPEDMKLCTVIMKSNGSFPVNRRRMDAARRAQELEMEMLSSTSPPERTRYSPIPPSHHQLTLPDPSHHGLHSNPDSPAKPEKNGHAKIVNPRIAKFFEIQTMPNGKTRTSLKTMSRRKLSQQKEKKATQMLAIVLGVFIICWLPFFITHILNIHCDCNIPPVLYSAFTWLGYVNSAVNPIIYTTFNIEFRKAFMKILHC

N[C@@H](Cc1c[nH]c2ccccc12)C(=O)O [tryptophan]
development of hyperalgesia [1]: blocks

CCN[C@@H](C)Cc1cccc(C(F)(F)F)c1 [d-fenfluramine]
consumption of a sucrose solution ([2]; non-deprived rats): reduced

Oc1cc2c(cc1O)C(c1ccccc1)CNCC2 (centres unmarked) [SKF 38393]
persistent phase of formalin-induced nociception (D2 receptors in the Nacc): without effect

CN1[C@@H]2CC[C@H]1C[C@@H](OC(c1ccccc1)c1ccccc1)C2 [Cogentin]
release of dopamine formed from 14C-phenylalanine (synaptosomal dopamine): increased

O=C1CC[C@@]2(O)[C@H]3Cc4ccc(O)c5c4[C@@]2(CCN3CC2CC2)[C@H]1O5 [Trexan]
average number of days of compliance [3]: 37 days

O=C(O)CC(O)(C(=O)O)C(O)C(=O)O (stereo not drawn) [HCA, (−)—Hydroxycitric acid]
inhibition of ATP-citrate lyase (ATP-citrate lyase): competitively inhibit | inhibition of ATP-citrate lyase (ATP-citrate lyase; listed as FCA): competitive inhibitor | weight loss relative to placebo [4]: 1.68 times greater than placebo | satiety [5]: no observable effects | satiety and energy intake compared to placebo [6]: did not increase satiety or effect energy intake | time to peak plasma levels [7]: approximately 2 hours | mean weight loss [8]: 6.4 kg | short-term rate of fat oxidation [9]: did not alter

[Ca+2] [calcium]
lower body weight per 300 mg increment of regular intake ([10]; adults): 2.5 to 3.0 kg | weight loss compared to the placebo group ([10]; approximately 4 years of observation): significant weight loss | less body fat per 300 mg increment of regular intake ([10]; children): about 1 kg | reduction of prevalence of overweight and obesity (estimate) ([10]; increased intake): 60-80%

substance P (RPKPQQFFGLM; ends and bridges not checked; UniProt P20366 58-68, looked up) [SP, tachykinin neuropeptide, substance P]
tonic pain / analgesia in the formalin test [11]: inhibit tonic pain

CNCCC(Oc1ccc(C(F)(F)F)cc1)c1ccccc1 (centres unmarked) [fluoxitine]
development of hyperalgesia [1]: blocks | ingestion of saccharin solutions ([2]; normal rats): suppresses

gurmarin
sweet taste of glucose and sucrose [12]: block

N[C@@H](Cc1c[nH]c2ccc(O)cc12)C(=O)O [5-HTP, 5-hydroxy-l-tryptophan]
5-HT in dialysates (release of serotonin): immediate increase

CHONDROITIN SULFATE
OA pain / joint function [13]: significant improvement in pain and inflammation and improved joint function

CC(C)CC(N(C)C)C1(c2ccc(Cl)cc2)CCC1 (centres unmarked) [Sibutramine]
serotonin and dopamine concentrations in striatal and hypothalamic brain regions ([14]; higher doses): increased | serotonin and dopamine concentrations in dialysates ([14]; low doses): no effect

O=S(=O)([O-])[O-].[O]=[V+2] [vanadyl, Vanadyl sulfate]
blood sugar levels [15]: very effective in normalizing blood sugar levels

CC(N)Cc1ccccc1 (centres unmarked) [Amphetamine]
release of dopamine formed from 14C-phenylalanine (synaptosomal dopamine): increased

C[S+](CC[C@H](N)C(=O)[O-])C[C@H]1O[C@@H](n2cnc3c(N)ncnc32)[C@H](O)[C@@H]1O (stereo partly drawn) [SAM-e, S-adenosyl-L-methionine]
OA pain / joint function [13]: equal to NSAIDs

CN(C)CCCN1c2ccccc2CCc2ccc(Cl)cc21 [clomipramine]
development of hyperalgesia [1]: blocks

O=C(OC[C@H]1O[C@@H](OC(=O)c2cc(O)c(O)c(OC(=O)c3cc(O)c(O)c(O)c3)c2)[C@H](OC(=O)c2cc(O)c(O)c(OC(=O)c3cc(O)c(O)c(O)c3)c2)[C@@H](OC(=O)c2cc(O)c(O)c(OC(=O)c3cc(O)c(O)c(O)c3)c2)[C@@H]1OC(=O)c1cc(O)c(O)c(OC(=O)c2cc(O)c(O)c(O)c2)c1)c1cc(O)c(O)c(OC(=O)c2cc(O)c(O)c(O)c2)c1 [Tannic Acid]
expression of key genes for adipogenesis (PPAR-gamma 2; c-fos; c-jun and c-myc) (insulin receptor (IR)): inhibit | phosphorylation of the insulin receptor (IR) (insulin receptor (IR)): induces phosphorylation | translocation of the glucose transporter (GLUT 4) (insulin receptor (IR)): translocation

CCN1CCC[C@H]1CNC(=O)c1c(O)c(Cl)cc(Cl)c1OC [raclopride]
persistent phase of formalin-induced nociception (D2 receptors in the Nacc): blocked

CCn1cc(C(=O)O)c(=O)c2ccc(Cc3ccccc3)nc21 [Amfoelic acid]
release of dopamine formed from 14C-phenylalanine (synaptosomal dopamine): net release

NC(Cc1ccc(Cl)cc1)C(=O)O (centres unmarked) [Para-Chlora-Phenylalanine (PCA), Para-Chlora-Phenylalanine]
induction of stress [16]: attenuated

CCCN1CCc2cccc3c2[C@H]1Cc1ccc(O)c(O)c1-3 [n-propylnor-apomorphine]
symptoms after withdrawal of opiates [17]: significantly suppresses

N[C@H](Cc1ccccc1)C(=O)O [d-phenylalanine]
alcohol preference [18]: significantly reduced | brain enkephalins [18]: brain changes of the enkephalins

CN1CC[C@]23c4c5ccc(O)c4O[C@H]2[C@@H](O)C=C[C@H]3[C@H]1C5 [morphine]
food intake [19]: decreased food intake | tonic pain / analgesia in the formalin test [11]: induces analgesia

N[C@H]1C(O)O[C@H](CO)[C@@H](O)[C@@H]1O (some centres unmarked) [glucosamine]
progression of the disease ([13]; knee OA, three years): slowed, if not stopped

NC(Cc1ccccc1)C(=O)O (racemic) [dl-phenylalanine]
psychosocial stress as measured by SCL [20]: reduces stress

O=C(O)CCc1ccccc1 [hydrocunnamic acid, reference compound]
alcohol preference [18]: significantly reduced | brain enkephalins [18]: brain changes of the enkephalins
